From patent EP0227593A1, “Use of chelating agents” (THE HOSPITAL FOR SICK CHILDREN, priority 1985, dated 1987)

Columns and labels:
[1] = tested on: patient's PB blast cells; experiment: ALL blast colony assay; format: cell-based; conditions: Homo sapiens
Protocol: ALL Blast Colony Assay: The assay we used is a modification of previously described methods. T-cell depletion: Post-Ficoll mononuclear BM cells were incubated with neuraminidase sensitized sheep erthrocytes (SRBC) at 4°C for 2 hours, followed by gradient centrifugation. This procedure was repeated twice. Cells at the interface contained less than 0.5 % T-cells as assessed by AET sensitized SRBC rosette formation and using anti-Leu-4 and anti-Leu-5 monoclonal anti-T-cell antibodies (Becton Dickinson, CA). T-lymphocytes were obtained by recovery of rosetted cells from the pellet following lysis with Tris-buffered ammonium chloride (Sigma, St. Louis, MO). Feeder Cells: Post-Ficoll normal donors' PB cells were depleted of adherent cells by incubation on plastic Petri dishes with 10 % fetal calf serum for 90 min. at 37°C. […]
Cell Culture Procedure: 2 x 10⁵ T-depleted cells were incubated with 40 % RPMI-methylcellulose, 20 % PHA-LCM, 10 % FCS, irradiated feeder cells (10⁵/dish), 16.6 % RPMI in 35 mm Petri dishes. […] Colonies were counted at day 4. […] For control, 2 x 10⁵ irradiated feeder cells were cultured in the same assay system in each experiment to exclude their potential for colony formation Immunocytochemical Method: The cell surface antigens of air dried smears were detected using monoclonal antibodies and intestinal alkaline phosphatase, as previously described. […]

[2] = tested on: peripheral blood blast cells; experiment: Surface marker analysis on PB smears before and after 48 hours of deferoxamine treatment (immunocytochemical method); format: in vivo, human; design: key to Ia intensity of staining / OKM1 intensity of staining / MY-4 intensity of staining: strong (+++); moderate (++); weak (+); conditions: PB smears after 48 hours of deferoxamine treatment
Protocol: Cell Culture Procedure: 2 x 10⁵ T-depleted cells were incubated with 40 % RPMI-methylcellulose, 20 % PHA-LCM, 10 % FCS, irradiated feeder cells (10⁵/dish), 16.6 % RPMI in 35 mm Petri dishes. The culture dishes were placed into a specialized modular incubator chamber (Billups-Rosenberg, Del Mar, CA) in a humidified atmosphere of 5 % O₂, 5 % CO₂ and balanced nitrogen for 3-6 days. After 2 days of incubation, the culture dishes were carefully examined. Colonies were counted at day 4. A cluster of more than 20 cells was defined as a colony. Individual colonies were plucked from the culture plates and smeared on microscope slides for further evaluation, using Wright stain and non-specific esterase staining. For control, 2 x 10⁵ irradiated feeder cells were cultured in the same assay system in each experiment to exclude their potential for colony formation Immunocytochemical Method: The cell surface antigens of air dried smears were detected using monoclonal antibodies and intestinal alkaline phosphatase, as previously described. This assay was performed to detect surface antigens on patients' PB and BM smears and colonies plucked from cultures. The slides were counter- stained in hematoxylin for light microscopy and the presence of surface antigen was indicated as bright red granular cellular inclusions. Morphologic details were well preserved, and a very high degree of correlation between morphology and surface antigen expression was observed. The intensity of staining was defined as strong (+++), moderate (++) and weak (+). Immunofluorescence Method: The cell surface phenotype was determined by indirect cell-surface fluorescence: A fluorescein-conjugated goat anti-mouse IgG (FAb')₂ was used as second antibody. The labelling was performed at room temperature in the presence of 0.2 % sodium azide. The percentage of cells with surface fluorescence was determined by counting cells stained in three replicate wells using an inverted phase-fluorescent microscope. Monoclonal Antibodies: The following monoclonal antibodies were used in these studies: anti-OKIa (Ortho Diagnostic Systems Inc. Raritan, NJ) to detect HLA-D framework antigen, anti-MY-7, anti-Mol and anti-MY-4 (coulter Immunology) to identify myelomonocytic markers, anti-Ig. anti-BA1, anti-BA2, anti-B1, and anti-B4 (Becton-Dickinson) to recognize cells of the B-cell lineage, anti-J5 (Coulter Immunology) to recognize cells bearing common ALL (CALLA) antigen and anti-Leu-1 and anti-Leu-4 (Coulter Immunology) to recognize cells of the T-cell lineage.
DFO and Blast Cell Differentiation: After 48 hours of continuous infusion of DFO as a single agent, striking changes in blast cell surface markers were detected immunocytochemically (Table 3). Prior to treatment, no blasts expressed OKM1 antigen, and only 8 % weakly expressed MY-4. After 48 hours, these two antigens were strongly detected in peripheral blood blast cells. Concomitantly with DFO therapy, there was a sharp decline from 37 % to 0 % of cells bearing B₄ antigen.
Immunologic surface markers were dermined before and after 48 hours of deferoxamine treatment on PB smears using the immunocytochemical method

Compound: CC(=O)N(O)CCCCCNC(=O)CCC(=O)N(O)CCCCCNC(=O)CCC(=O)N(O)CCCCCN [DFO, desferioxamine methanesulfonate]
- inhibition at 2.15 µM ([1]; 2.15 µM DFO, read-out: reduction in blast colonies): 70%
- minimal effective concentration ([1]; patient's PB blast cells, read-out: DFO concentrations with significant decline in blast colonies): > 1.25 µM
- B4 positive cells [2]: 0%
- CALLA positive cells [2]: 0%
- Ia intensity of staining [2]: +++
- Ia positive cells [2]: 80%
- Leu-1 positive cells [2]: 0%
- Leu-4 positive cells [2]: 0%
- MY-4 intensity of staining [2]: +++
- MY-4 positive cells [2]: 60%
- OKM1 intensity of staining [2]: +++
- OKM1 positive cells [2]: 40%
